Results published in patent US11505543B2, “4-oxo-3,4-dihydroquinazoline compounds as inhibitors of human immunodeficiency virus replication” (VIIV HEALTHCARE UK (NO.5) LIMITED, priority 2018, dated 2022).
pEC50: −log10 of the molar value.

Assays:
[1] = Compound cytotoxicity, XTT-based colorimetric assay; format: cell-based; details: human, uninfected MT2 cells, day 4, XTT
Method in brief: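 Run under the antiviral-assay protocol but without virus. Viability was read on day 4 and CC50 values were derived from the readout.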

[2] = tested on: recombinant NL4-3 virus (nef section replaced with Renilla luciferase gene) in MT-2 cells; experiment: HIV cell culture assay (antiviral activity, luciferase readout); format: cell-based; details: Renilla, NL43, MT-2 cells infected for 4-5 days with recombinant NL4-3 Renilla luciferase virus, serial dilutions of compound
Method in brief: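 Test compound in serial dilution was present while MT-2 cells were infected for 4–5 days with recombinant NL4-3 virus made in 293T cells. Antiviral activity was quantified as Renilla luciferase activity, read with a live-cell substrate. EC50 came from the median-effect equation.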

Structure (SMILES) | CC50 at 4 day [1] [nM] | pEC50 [2]
Cn1nc(NS(C)(=O)=O)c2c(Cl)ccc(-n3c([C@H](Cc4cc(F)cc(F)c4)NC(=O)Cn4nc(C(F)F)c5c4C(F)(F)[C@@H]4C[C@H]54)nc4cc(-c5cc[nH]n5)ccc4c3=O)c21 (atropisomer, axis not shown; (aR)) [Example 78, N-((S)-1-(3-(4-chloro-1-methyl-3-(methylsulfonamido)-1H-indazol-7-yl)-4-oxo-7-(1H-pyrazol-3-yl)-3,4-dihydroquinazolin-2-yl)-2-(3,5-difluorophenyl)ethyl)-2-((3bS,4aR)-3-(difluoromethyl)-5,5-difluoro-3b,4,4a,5-tetrahydro-1H-cyclopropa[3,4]cyclopenta[1,2-c]pyrazol-1-yl)acetamide] | > 1000 | 9.92
Cn1nc(NS(C)(=O)=O)c2c(Cl)ccc(-n3c([C@H](Cc4cc(F)cc(F)c4)NC(=O)Cn4nc(C(F)F)c5c4C(F)(F)[C@@H]4C[C@H]54)nc4cc(-c5ccc6c7c(ccnc57)CCO6)ccc4c3=O)c21 (atropisomer, axis not shown; (aR)) [Example 82, N-((S)-1-(3-(4-chloro-1-methyl-3-(methylsulfonamido)-1H-indazol-7-yl)-7-(2,3-dihydropyrano[4,3,2-de]quinolin-7-yl)-4-oxo-3,4-dihydroquinazolin-2-yl)-2-(3,5-difluorophenyl)ethyl)-2-((3bS,4aR)-3-(difluoromethyl)-5,5-difluoro-3b,4,4a,5-tetrahydro-1H-cyclopropa[3,4]cyclopenta[1,2-c]pyrazol-1-yl)acetamide] | > 1000 | 8.15
Cn1nc(NS(C)(=O)=O)c2c(Cl)ccc(-n3c([C@H](Cc4cc(F)cc(F)c4)NC(=O)Cn4nc(C(F)F)c5c4C(F)(F)[C@@H]4C[C@H]54)nc4cc(-c5cncnc5)ccc4c3=O)c21 (atropisomer, axis not shown; (aR)) [Example 84, N-((S)-1-(3-(4-chloro-1-methyl-3-(methylsulfonamido)-1H-indazol-7-yl)-4-oxo-7-(pyrimidin-5-yl)-3,4-dihydroquinazolin-2-yl)-2-(3,5-difluorophenyl)ethyl)-2-((3bS,4aR)-3-(difluoromethyl)-5,5-difluoro-3b,4,4a,5-tetrahydro-1H-cyclopropa[3,4]cyclopenta[1,2-c]pyrazol-1-yl)acetamide] | > 1000 | 10.17
COc1cccc(OC)c1-c1ccc2c(=O)n(-c3ccc(Cl)c4c(NS(C)(=O)=O)nn(C)c34)c([C@H](Cc3cc(F)cc(F)c3)NC(=O)Cn3nc(C(F)F)c4c3C(F)(F)[C@@H]3C[C@H]43)nc2c1 (atropisomer, axis not shown; (aR)) [Example 86, N-((S)-1-(3-(4-chloro-1-methyl-3-(methylsulfonamido)-1H-indazol-7-yl)-7-(2,6-dimethoxyphenyl)-4-oxo-3,4-dihydroquinazolin-2-yl)-2-(3,5-difluorophenyl)ethyl)-2-((3bS,4aR)-3-(difluoromethyl)-5,5-difluoro-3b,4,4a,5-tetrahydro-1H-cyclopropa[3,4]cyclopenta[1,2-c]pyrazol-1-yl)acetamide] | > 1000 | 9.30
Cn1nc(NS(C)(=O)=O)c2c(Cl)ccc(-n3c([C@H](Cc4cc(F)cc(F)c4)NC(=O)Cn4nc(C(F)F)c5c4C(F)(F)[C@@H]4C[C@H]54)nc4cc(-c5ccccn5)ccc4c3=O)c21 (atropisomer, axis not shown; (aR)) [Example 87, N-((S)-1-(3-(4-chloro-1-methyl-3-(methylsulfonamido)-1H-indazol-7-yl)-4-oxo-7-(pyridin-2-yl)-3,4-dihydroquinazolin-2-yl)-2-(3,5-difluorophenyl)ethyl)-2-((3bS,4aR)-3-(difluoromethyl)-5,5-difluoro-3b,4,4a,5-tetrahydro-1H-cyclopropa[3,4]cyclopenta[1,2-c]pyrazol-1-yl)acetamide] | > 1000 | 10.05
Cc1ccccc1-c1ccc2c(=O)n(-c3ccc(Cl)c4c(NS(C)(=O)=O)nn(C)c34)c([C@H](Cc3cc(F)cc(F)c3)NC(=O)Cn3nc(C(F)F)c4c3C(F)(F)[C@@H]3C[C@H]43)nc2c1 (atropisomer, axis not shown; (aR)) [Example 88, N-((S)-1-(3-(4-chloro-1-methyl-3-(methylsulfonamido)-1H-indazol-7-yl)-4-oxo-7-(o-tolyl)-3,4-dihydroquinazolin-2-yl)-2-(3,5-difluorophenyl)ethyl)-2-((3bS,4aR)-3-(difluoromethyl)-5,5-difluoro-3b,4,4a,5-tetrahydro-1H-cyclopropa[3,4]cyclopenta[1,2-c]pyrazol-1-yl)acetamide] | > 1000 | 9.14
Cc1n[nH]c(C)c1-c1ccc2c(=O)n(-c3ccc(Cl)c4c(NS(C)(=O)=O)nn(C)c34)c([C@H](Cc3cc(F)cc(F)c3)NC(=O)Cn3nc(C(F)F)c4c3C(F)(F)[C@@H]3C[C@H]43)nc2c1 (atropisomer, axis not shown; (aR)) [Example 89, N-((S)-1-(3-(4-chloro-1-methyl-3-(methylsulfonamido)-1H-indazol-7-yl)-7-(3,5-dimethyl-1H-pyrazol-4-yl)-4-oxo-3,4-dihydroquinazolin-2-yl)-2-(3,5-difluorophenyl)ethyl)-2-((3bS,4aR)-3-(difluoromethyl)-5,5-difluoro-3b,4,4a,5-tetrahydro-1H-cyclopropa[3,4]cyclopenta[1,2-c]pyrazol-1-yl)acetamide] | > 1000 | 8.47
Cc1cc(Cl)ccc1-c1ccc2c(=O)n(-c3ccc(Cl)c4c(NS(C)(=O)=O)nn(C)c34)c([C@H](Cc3cc(F)cc(F)c3)NC(=O)Cn3nc(C(F)F)c4c3C(F)(F)[C@@H]3C[C@H]43)nc2c1 (atropisomer, axis not shown; (aR)) [Example 90] | > 1000 | 8.24
Cn1nc(NS(C)(=O)=O)c2c(Cl)ccc(-n3c([C@H](Cc4cc(F)cc(F)c4)NC(=O)Cn4nc(C(F)F)c5c4C(F)(F)[C@@H]4C[C@H]54)nc4cc(-c5ccc(S(=O)(=O)N6CCOCC6)cc5)ccc4c3=O)c21 (atropisomer, axis not shown; (aR)) [Example 91, N-((S)-1-(3-(4-chloro-1-methyl-3-(methylsulfonamido)-1H-indazol-7-yl)-7-(4-(morpholinosulfonyl)phenyl)-4-oxo-3,4-dihydroquinazolin-2-yl)-2-(3,5-difluorophenyl)ethyl)-2-((3bS,4aR)-3-(difluoromethyl)-5,5-difluoro-3b,4,4a,5-tetrahydro-1H-cyclopropa[3,4]cyclopenta[1,2-c]pyrazol-1-yl)acetamide] | > 1000 | 9.41
Cc1noc(C)c1-c1ccc2c(=O)n(-c3ccc(Cl)c4c(NS(C)(=O)=O)nn(C)c34)c([C@H](Cc3cc(F)cc(F)c3)NC(=O)Cn3nc(C(F)F)c4c3C(F)(F)[C@@H]3C[C@H]43)nc2c1 (atropisomer, axis not shown; (aR)) [Example 94, N-((S)-1-(3-(4-chloro-1-methyl-3-(methylsulfonamido)-1H-indazol-7-yl)-7-(3,5-dimethylisoxazol-4-yl)-4-oxo-3,4-dihydroquinazolin-2-yl)-2-(3,5-difluorophenyl)ethyl)-2-((3bS,4aR)-3-(difluoromethyl)-5,5-difluoro-3b,4,4a,5-tetrahydro-1H-cyclopropa[3,4]cyclopenta[1,2-c]pyrazol-1-yl)acetamide] | > 1000 | 9.36
Cn1nc(NS(C)(=O)=O)c2c(Cl)ccc(-n3c([C@H](Cc4cc(F)cc(F)c4)NC(=O)Cn4nc(C(F)F)c5c4C(F)(F)[C@@H]4C[C@H]54)nc4cc(-c5cnccc5F)ccc4c3=O)c21 (atropisomer, axis not shown; (aR)) [Example 96, N-((S)-1-(3-(4-chloro-1-methyl-3-(methylsulfonamido)-1H-indazol-7-yl)-7-(4-fluoropyridin-3-yl)-4-oxo-3,4-dihydroquinazolin-2-yl)-2-(3,5-difluorophenyl)ethyl)-2-((3bS,4aR)-3-(difluoromethyl)-5,5-difluoro-3b,4,4a,5-tetrahydro-1H-cyclopropa[3,4]cyclopenta[1,2-c]pyrazol-1-yl)acetamide] | > 1000 | 10.12
Cn1nc(NS(C)(=O)=O)c2c(Cl)ccc(-n3c([C@H](Cc4cc(F)cc(F)c4)NC(=O)Cn4nc(C(F)F)c5c4C(F)(F)[C@@H]4C[C@H]54)nc4cc(-c5ccc(F)c(C#N)c5)ccc4c3=O)c21 (atropisomer, axis not shown; (aR)) [Example 97, N-((S)-1-(3-(4-chloro-1-methyl-3-(methylsulfonamido)-1H-indazol-7-yl)-7-(3-cyano-4-fluorophenyl)-4-oxo-3,4-dihydroquinazolin-2-yl)-2-(3,5-difluorophenyl)ethyl)-2-((3bS,4aR)-3-(difluoromethyl)-5,5-difluoro-3b,4,4a,5-tetrahydro-1H-cyclopropa[3,4]cyclopenta[1,2-c]pyrazol-1-yl)acetamide] | > 1000 | 9.40
Cn1nc(NS(C)(=O)=O)c2c(Cl)ccc(-n3c([C@H](Cc4cc(F)cc(F)c4)NC(=O)Cn4nc(C(F)F)c5c4C(F)(F)[C@@H]4C[C@H]54)nc4cc(-c5ccc(F)c(CO)c5)ccc4c3=O)c21 (atropisomer, axis not shown; (aR)) [Example 98, N-((S)-1-(3-(4-chloro-1-methyl-3-(methylsulfonamido)-1H-indazol-7-yl)-7-(4-fluoro-3-(hydroxymethyl)phenyl)-4-oxo-3,4-dihydroquinazolin-2-yl)-2-(3,5-difluorophenyl)ethyl)-2-((3bS,4aR)-3-(difluoromethyl)-5,5-difluoro-3b,4,4a,5-tetrahydro-1H-cyclopropa[3,4]cyclopenta[1,2-c]pyrazol-1-yl)acetamide] | > 1000 | 9.41
